Tests used:
[1] = tested on: Swiss 3T3 cells and REF52 cells; experiment: Beauvericin-induced apoptosis (anti-tubulin and propidium iodide staining); assay type: cell-based; settings: 50 μM, 6 hours, 37° C.
Description: A first group of transfected Swiss 3T3 cells and REF52 cells were treated with 50 μM beauvericin for 6 hours at 37° C. Beauvericin is a compound known to induce apoptosis in mammalian cells. A second group of cells were treated with a control buffer lacking beauvericin. The treated cells were then fixed in parafornaldehyde and permeabilized with saponin using protocols standard in the art. The permeabilized cells were then labelled by incubating the cells with a fluorescein-labelled anti-tubulin antibody (1:500; obtained from GIBCO, Gaithersburg, Md.) to detect cytoplasmic shrinkage or 10 μM propidium iodide (obtained from Sigma, St. Louis, Mo.) to stain DNA to detect nuclear condensation. The labelled cells were then viewed by differential fluorescent imaging using a Nikon Diaphot fluorescent microscope.

MEKK1 = MEKK1 immunoprecipitate in vitro kinase assay (MEK-1 phosphorylation), growth factor treated PC12 cells; assay type: cell-based; settings: for MEKK1 activity: serum starved PC12 cells, EGF 30 ng/ml or NGF 100 ng/ml, 5 minutes
c-Raf-1 = experiment: Raf-1 immunoprecipitate in vitro kinase assay, growth factor treated PC12 cells; assay type: cell-based; settings: in comparison to MEKK1 or Raf-B
Description: (§1) Reactions were stopped by the addition of 2× SDS sample buffer (20 μl). The samples were boiled for 3 minutes and subjected to SDS-PAGE and autoradiography. Raf-B was immunoprecipitated from the same untreated and treated PC 12 cell lysates as above with an antiserum to a COOH-terminal peptide of Raf-B (Santa Cruz Biotechnology, Inc.) and assayed similarly. Raf-1 was immunoprecipitated with an antiserum to the 12 COOH-terminal amino acids of Raf-1 (Santa Cruz Biotechnology, Inc.).

p42/p44 MAPK = experiment: MAPK assay (EGFR662-681 peptide), L929 cells; assay type: cell-based, murine
Description: MAPK Assay MAPK activity was measured exactly as described previously (Gardner, A. M., et al. (1994) Meth. Enzymol. 238:258-270) with the exception that MonoQ FPLC fractionation was replaced by step elution from a DEAE-Sephacel column using 0.5 M NaCl in loading buffer. The eluate was assayed in triplicate using the epidermal growth factor receptor 662-681 peptide (EGFR662-681) as a selective substrate for MAPK activity (Heasley, L. E., et al. (1994) American Journal of Physiology (Renal Fluid Electrolyte Physiol. 36) 267:F366-F373).

L929 cells = experiment: TNFα-mediated apoptosis of L929 cells (neutral red assay, propidium iodide staining); assay type: cell-based, murine; settings: for effect on TNFα-mediated cell death / apoptosis / effect on the protective action of bFGF against TNFα-mediated cell death: L929 cells
Description: Cell lines and culture. L929 cells (ATCC CCL1 were maintained in Dulbecco's modified Eagle's medium with 5% newborn claf serum and 5% bovine calf serum (BCS) supplemented with 100 ug/ml streptomycin and 100U/ml penicillin. The cells were grown in 10 cm dishes at 37° C. in 7.5% CO2. Cells were made quiescent where indicated by incubation in Dulbecco's modified Eagle's medium and 0.1% bovine serum albumin for 24 h. Recombinant murine TNFα and recombinant humanbFGF (147aa) were from R&D Systems, Minneapolis, Minn. Cells were pretreated where indicated with the MEK-1 inhibitor PD#098059 (Parke-Davis Pharmaceutical Corp. Ann Arbor, Mich.) for 1 h at 37° C. Cells were stimulated by incubation with the indicated cytokine or growth factor for various times at 37° C. […] Stimulation was stopped by rinsing the plates twice with ice cold phosphate buffered saline (PBS) and lysing the cells in the appropriate lysis buffer. Cells were scraped from the plates and nuclei were pelleted for 10 min at 14,000 RPM in a microcentrifuge.
Neutral Red Assay Uptake of the dye neutral red was used as one measure of cell viability following cytokine or growth factor treatment (Finter, N. B. (1969) J. Gen Virol. 5:419-427). 1.5×10^4-2.5×10^5 L929 cells/well were plated in 12 well tissue culture dishes in 1.25 ml of media. Cells were treated for 15-20 hr with various concentrations of TNFα and/or bFGF. 2.5 μl of 1% neutral red was added to the wells and incubated for 2 hr at 37° C. PBS. The neutral red was extracted with 1.0 ml of 50% ethanol, 50 mM Na-citrate pH 4.2 and absorbency was measured at […].
Propidium iodide staining Cells were plated on glass chamber slides (Nunc, Naperville, Ill.) at a concentration of 0.2-0.6×10^5 cells/ml. Ras expression was induced with 5 mM IPTG in Dulbecco's modified Eagle's medium with 0.1% BCS for 8-12 hr. Cells were exposed to TNFα (5 ng/ml) and/or bFGF (500 pg/ml) in Dulbecco's modified Eagle's medium with 0.1% BCS for 16 hr. The parental LACI expressing cell line (see below) was used as a control. Cells were washed twice in PBS, fixed in acetone:methanol (1:1) −20° C. for 5 min, air dried, washed twice in PBS, stained with 1 μg/ml propidium iodide (PI) in PBS for 20 min, washed in PBS, washed in H2O and mounted in 25% glycerol/PBS. PI fluorescence was observed using a Nikon inverted microscope equipped with epifluorescence and a […] filter. Images were analyzed using IP lab.

JNK = JNK assay (solid state kinase assay with GST-Jun), L929 cells; assay type: cell-based, murine; settings: for effect on TNFα stimulation of JNK: co-stimulation or IPTG-induced Ras expression; for effect on JNK activity: bFGF 2.5 ng/ml, PD #098059 pretreatment
Description: JNK assay. JNK activity was measured using a solid state kinase assay in which glutathione S-transferase-c-Jun(1-79) (GST-JUN) cound to glutathione-Sepharose 4B beads was used to affinity pruify JNK and then JNK activity was measured in an in vitro kinase assay using the sepharose bound GST-Jun as a substrate (Hibi, M., et al. (1993) Genes & Development 7:2135-2148). Stimulated or unstimulated cells were lysed in 0.5% Nonidet P-40, 20 mM HEPES pH 7.2, 100 mM NaCl, 2 mM dithiothreitol, lmM EDTA, 1.0 mM phenylmethylsulfonylfluoride, 1 μg/ml aprotinin and the nuclei pelleted. Lysates were normalized for protein content. […] Binding to GST-Jun efficiently isolates the two major forms of JNK (p45and p55) and under the conditions used JNK isolation was linear for 10-250 μg of cell lysate. The lysates were rotated at 4° C. for 1-3 h. Beads were washed twice in lysis buffer and then twice in PAN (10 mM PIPES, pH 7.0, 100 mM NaCl, 21 μg/ml aprotinin). Kinase reactions were carried out at 30° C. for 15 min in 20 mM Hepes pH 7.2, 20 mM β-glycerophosphate, 10 mMp-nitrophenyl phosphate, 10 mM MgCl2, 1 mM dithiothreitol, 50 μm sodium vanadate, 10 μCi γ^32P-ATP 4300 Ci/mmole. The kinase reaction was linear from 0-30 min.

C-Raf = experiment: Raf activation assay (kinase-inactive MEK-1 phosphorylation), L929 cells; assay type: cell-based, murine
Description: (§2) RafActivation Assay Cells were serum starved and challenged in the presence or absence of the appropriate cytokine or growth factors, as described above. Cells were lysed by scraping in ice cold RIPA buffer (50 mM Tris-HCl, pH 7.2, 150 mM NaCl, 0.1% SDS, 0.5% sodium deoxycholate, 1.0% Triton X-100, 10 mM sodium pyrophosphate, 25 mM β-glycerophosphate, 2 mM sodium vanadate, 2.1 µg/ml aprotinin) and the nuclei were pelletted. The supernatants were normalized for protein content and precleared with protein A Sepharose prior to immunoprecipitation with rabbit antiserum to the C terminus of C-Raf, rabbit anti-serum to A-Raf or rabbit antiserum to B-Raf (Santa Cruz Biotech., Santa Cruz, Calif.) and protein A Sepharose for 2-3 hr at 4° C. The beads were washed twice with ice cold RIPA and twice with PAN. A third of the immunoprecipitate was diluted with SDS sample buffer and used for immunoblot analysis. […] Wild-type recombinant MEK-1 was autophosphorylated in parallel as a marker. Reactions were terminated by the addition of 12.5 μl 5× SDS sample buffer, boiled, and subjected to SDS-PAGE and autoradiography.

B-Raf = experiment: as above; assay type: cell-based, murine
Description: as §2

Raf-B = Raf-B immunoprecipitate in vitro kinase assay, EGF treated PC12 cells; assay type: cell-based; settings: EGF 30 ng/ml timecourse
Description: as §1

Swiss 3T3 cells = experiment: Quantitation of MEKKCOOH-induced cell death after nuclear microinjection; assay type: cell-based
Description: Swiss 3T3 and REF52 cells were plated on acid-washed glass cover slips in Dulbecco's Modified Eagle's Medium (DMEM) and 10% bovine calf serum (BCS) or newborn calf serum (NCS). Cells were placed in DMEM/0.1% calf serum for overnight incubation prior to microinjection and used for injection at 50-70% confluence. Injections were performed with an Eppendorf automated microinjection system with needles pulled from glass capillaries on a vertical pipette puller (Kopf, Tujunga, Calif.). Cells were injected with pCMVβ-gal in the presence or absence of pCMV5MEKKCOOH or pCMV5BxBRaf at 20-100 ng/μl for each expression plasmid in 100 mM KC1, 5 mM NaPO4, pH 7.3. […] Similar results were obtained when cells were placed in 10% NCS after microinjection. Propidium iodide (5 pg/ml) was used to stain DNA. X-Gal reactions were performed for six hr.
Seventeen hours after injection cells were fixed and stained for β-galactosidase activity with X-Gal. Injected cells attached to the coverslip were scored as positive for cell death when they were highly condensed, small round cells.

endogenous MEKK1 protein = experiment: Cleavage of endogenous MEKK1 after genotoxic stress stimuli (immunoblot); assay type: cell-based, Human; settings: HEK293 cells
Description: 200-400 μg cell lysate protein was subjected to SDS-9% PAGE and transferred to nitrocellulose membranes. Blots were performed exactly as described (Widmann et al., 1995). To detect HA-tagged proteins, the mouse monoclonal antibody 12CA5 (Babco) was used as the primary antibody, followed by a rabbit anti-mouse antibody (Cappel). HRP-conjugated protein A at a 1/5000 dilution (Zymed) and ^125I-protein A at a 1/500 dilution (Dupont NEN) were then used for enhanced chemiluminescence (ECL) detection and for quantification using the phosphorimager. To detect MEKK1, 3 different ploclonal antisera were used as primary antibodies, followed by ECL detection using HRP-protein A (see above). These sera were generated by injecting rabbits with GST proteins fused with different portions of the MEKK1 protein.
Several genotoxic stress stimuli were applied to HEK293 cells and their effect on the MEKK1 protein was assessed.

beauvericin
apoptotic morphology [1]: cytoplasmic shrinkage (monitored by the anti-tubulin antibodies) and nuclear condensation

NGF: growth factor used at 100 ng/ml on PC12 cells
MEKK1 activity (MEKK1): slight increase in MEKK1 activity | activation of c-Raf-1 (c-Raf-1): almost negligible

N17 Ras: HA-tagged inhibitory N17 Ras, IPTG-inducible in L929 cells [reference compound]
effect on bFGF stimulation of MAPK activity (p42/p44 MAPK; L929 cells): significantly blunted bFGF stimulation of MAPK | effect on TNFα-mediated cell death / apoptosis (L929 cells): did not affect TNFα induced apoptosis | effect on the protective action of bFGF against TNFα-mediated cell death (L929 cells): markedly inhibit the ability of bFGF to protect cells | effect on TNFα stimulation of JNK (JNK): no effect on TNF stimulation of JNK

COc1cccc(-c2cc(=O)c3ccccc3o2)c1N [PD #098059, reference compound]
effect on bFGF stimulation of MAPK activity (p42/p44 MAPK; L929 cells): inhibited bFGF stimulation of MAPK activity | effect on TNFα-mediated cell death / apoptosis (L929 cells): no effect on TNFα-mediated apoptosis | effect on the protective action of bFGF against TNFα-mediated cell death (L929 cells): inhibited the protective action of bFGF | effect on JNK activity (JNK): did not inhibit JNK kinase or the activation of JNK

bFGF: recombinant human basic fibroblast growth factor (147aa)
C-Raf activation (C-Raf): activation of both B-Raf and C-Raf | B-Raf activation (B-Raf): activation of both B-Raf and C-Raf | concentrations giving maximal stimulation of MAPK activity (p42/p44 MAPK): 0.25 to 0.5 ng/mL | MAPK activity (p42/p44 MAPK; L929 cells, TNFα 1 ng/ml where stated): robust activation of MAPK | effect on TNFα-mediated cell death / apoptosis (L929 cells): effective at blocking TNFα-mediated cell death | cell number (L929 cells; in the absence of TNFα): did not measurably increase cell number | effect on JNK activity (JNK): little or no effect on JNK activity | effect on TNFα stimulation of JNK (JNK): did not alter the magnitude of JNK activation

EGF: epidermal growth factor
persistence of MEKK1 activation (MEKK1; EGF 30 ng/ml timecourse): at least 30 minutes | MEKK1 activity (MEKK1): increased MEKK1 activity | activation of c-Raf-1 (c-Raf-1): almost negligible | time to peak Raf-B activity (Raf-B): 3 to 5 min

β-gal: expression plasmid encoding β-galactosidase, injected alone as control
injected cells with an altered morphology (Swiss 3T3 cells; 48-72 hours post-injection): < 1% | Condensed Cells (number) (Swiss 3T3 cells; Swiss 3T3 cells, 100 ng/μl plasmids, seventeen hours after injection, highly condensed, small round cells): 4 | Condensed Cells (%) (Swiss 3T3 cells; Swiss 3T3 cells, 100 ng/μl plasmids, seventeen hours after injection, percent of cells injected): 1%

N.N.[Cl][Pt][Cl] [cisplatin]
effect on full length MEKK1 protein (endogenous MEKK1 protein): induced the loss of full length MEKK1 | full length MEKK1 remaining after treatment (endogenous MEKK1 protein): no full length MEKK1 protein remaining

Reference: patent US20020055130A1, “Method and product for regulating apoptosis” (National Jewish Center for Immunology and Respiratory …, priority 1997, published 2002)
